Measured values reported in patent publication US8859543B2, “Imidazo[1,2-a]pyrazine derivatives and their use for the prevention or treatment of neurological, psychiatric and metabolic disorders and diseases” (Janssen Pharmaceutica NV, priority 2010, dated 2014).
Like-named read-outs stand apart in the source and are kept apart here.

Columns and labels:
[1] = tested on: apomorphine-induced stereotypy; test: Apomorphine-induced stereotypy in rats (APO); format: in vivo; settings: Rattus norvegicus
Protocol: Apomorphine-Induced Stereotypy in Rats (APO)
Apomorphine (1.0 mg/kg, i.v.)-induced stereotypy (compulsive sniffing, licking, chewing) was scored every 5 min. over the first hour after injection of apomorphine, following a 1 hour interval pre-treatment with the test compound. The score system was: (3) pronounced, (2) moderate, (1) slight, and (O) absent.

[2] = molecular target: T1, Rat recombinant PDE10A (rPDE10A2) (Rattus norvegicus, UniProt Q9QYJ6); test: In vitro assay PDE10A (SPA, 3H-cAMP); format: biochemical; settings: pIC50 corresponds to the -log IC50 expressed in mol/L; read-out: PDE10A2 pIC50 (converted)
T1 construct: made in house; host or cells: Sf9 insect cells, baculovirus
T1 sequence (Q9QYJ6 1-794): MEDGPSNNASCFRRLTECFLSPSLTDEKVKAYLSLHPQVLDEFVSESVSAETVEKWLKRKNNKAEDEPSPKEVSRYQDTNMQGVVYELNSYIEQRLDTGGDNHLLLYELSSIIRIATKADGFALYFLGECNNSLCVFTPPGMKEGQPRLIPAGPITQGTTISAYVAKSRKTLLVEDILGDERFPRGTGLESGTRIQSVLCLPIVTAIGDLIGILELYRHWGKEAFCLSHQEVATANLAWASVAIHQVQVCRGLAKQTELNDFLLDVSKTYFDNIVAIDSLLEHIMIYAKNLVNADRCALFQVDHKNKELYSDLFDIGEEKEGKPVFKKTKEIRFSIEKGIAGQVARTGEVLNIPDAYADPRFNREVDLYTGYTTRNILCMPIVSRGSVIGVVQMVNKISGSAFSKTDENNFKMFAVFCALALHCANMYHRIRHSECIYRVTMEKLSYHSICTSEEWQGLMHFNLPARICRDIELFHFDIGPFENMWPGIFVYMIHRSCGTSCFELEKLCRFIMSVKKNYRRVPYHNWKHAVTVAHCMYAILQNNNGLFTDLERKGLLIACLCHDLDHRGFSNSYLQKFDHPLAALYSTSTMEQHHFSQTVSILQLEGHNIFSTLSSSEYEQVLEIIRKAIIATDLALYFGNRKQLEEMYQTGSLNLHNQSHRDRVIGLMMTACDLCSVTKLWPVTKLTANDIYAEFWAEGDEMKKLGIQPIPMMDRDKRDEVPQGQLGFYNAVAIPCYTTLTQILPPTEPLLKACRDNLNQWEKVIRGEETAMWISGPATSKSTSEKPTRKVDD
Protocol: Rat recombinant PDE10A (rPDE10A2) was expressed in Sf9 cells using a recombinant rPDE10A baculovirus construct. Cells were harvested after 48 h of infection and the rPDE10A protein was purified by metal chelate chromatography on Ni-sepharose 6FF. Tested compounds were dissolved and diluted in 100% DMSO to a concentration 100 fold of the final concentration in the assay. Compound dilutions (0.4 μl) were added in 384 well plates to 20 μl of incubation buffer (50 mM Tris pH 7.8, 8.3 mM MgCl2, 1.7 mM EGTA). 10 μl of rPDE10A enzyme in incubation buffer was added and the reaction was started by addition of 10 μl substrate to a final concentration of 60 nM cAMP and 0.008 μCi ^3H-cAMP. The reaction was incubated for 60 min. at RT. […] After sedimentation of the beads during 30 min. the radioactivity was measured in a Perkin Elmer Topcount scintillation counter and results were expressed as cpm. For blank values the enzyme was omitted from the reaction and replaced by incubation buffer. Control values were obtained by addition of a final concentration of 1% DMSO instead of compound. The same assay principle is applied for the measurement of the affinity of the compound for other members of the PDE family with appropriate modifications in incubation buffer, substrate concentration, incubation time and stop solution.

[3] = not active at 2.5 or at 10 mg/kg, not further tested, read-out: APO ED50 (not active at threshold dose)

| SMILES | IC50 [2] | other results |
| --- | --- | --- |
| COCCc1cc(-c2c(C)nc3c(N4CCOCC4)nccn23)ccn1 [compound 19, 3-[2-(2-Methoxy-ethyl)-pyridin-4-yl]-2-methyl-8-morpholin-4-yl-imidazo[1,2-a]pyrazine] | – | ED50 [1, 3]: > 2.5 mg/kg |
| COCCc1ccc(-c2c(C(C)C)nc3c(N4CCOCC4)nccn23)cn1 [compound 13, 2-Isopropyl-3-[6-(2-methoxy-ethyl)-pyridin-3-yl]-8-morpholin-4-yl-imidazo[1,2-a]pyrazine] | – | ED50 [1, 3]: > 2.5 mg/kg |
| Cc1nc2c(N3CCOCC3)nccn2c1-c1cnn(CC2CC2(F)F)c1 (single isomer, unassigned) [compound 64] | 83.2 nM | – |
| Cc1nc2c(N3CCOCC3)nccn2c1-c1ccc(CC(C)C)nc1 [compound 106] | – | ED50 [1, 3]: > 2.5 mg/kg |
| COCCCc1ccc(-c2c(C)nc3c(N4CCOCC4)nccn23)cn1 [compound 6, 3-[6-(3-Methoxy-propyl)-pyridin-3-yl]-2-methyl-8-morpholin-4-yl-imidazo[1,2-a]pyrazine] | – | ED50 ([1]; read-out: APO ED50): ≤ 2.5 mg/kg |
| CCc1ccc(-c2c(C)nc3c(N4CCOCC4)nccn23)cn1 [compound 26, 3-(6-Ethyl-pyridin-3-yl)-2-methyl-8-morpholin-4-yl-imidazo[1,2-a]pyrazine] | – | ED50 [1, 3]: > 2.5 mg/kg |
| Cc1nc2c(N3CCOCC3)nccn2c1-c1ccc(NC(C)C)nc1 [compound 103] | – | ED50 [1, 3]: > 2.5 mg/kg |
| CO[C@H]1CCN(c2ccc(-c3c(C)nc4c(N5CCOCC5)nccn34)cn2)C1 [compound 24, (S)-3-[6-(3-Methoxy-pyrrolidin-1-yl)-pyridin-3-yl]-2-methyl-8-morpholin-4-yl-imidazo[1,2-a]pyrazine] | – | ED50 [1, 3]: > 2.5 mg/kg |
| COCCOc1ccc(-c2c(C)nc3c(N4CCOCC4)nccn23)cn1 [compound 1, 3-[6-(2-Methoxy-ethoxy)-pyridin-3-yl]-2-methyl-8-morpholin-4-yl-imidazo[1,2-a]pyrazine] | – | ED50 ([1]; po, * compound was not soluble and was tested orally as a suspension, read-out: APO ED50): 0.8 mg/kg |
| CCc1nc2c(N3CCOCC3)nccn2c1-c1cnn(CCOC)c1 [compound 100] | – | ED50 ([1]; read-out: APO ED50): 5 mg/kg |
| CCOCCn1cc(-c2c(C)nc3c(-c4ccncc4)nccn23)cn1 [compound 128] | 468 nM | – |
| Cc1nc2c(N3CCOCC3)nccn2c1-c1cnn(C2CCOC2)c1 (single isomer, unassigned) [compound 88] | 132 nM | – |
| CCc1ccc(-c2c(C3CC3)nc3c(N4CCOCC4)nccn23)cn1 [compound 66] | 85.1 nM | – |
| CCOCCc1ccc(-c2c(C)nc3c(N4CCOCC4)nccn23)cn1 [compound 20, 3-[6-(2-Ethoxy-ethyl)-pyridin-3-yl]-2-methyl-8-morpholin-4-yl-imidazo[1,2-a]pyrazine] | – | ED50 ([1]; read-out: APO ED50): 1.2 mg/kg |
| Cc1nc2c(N3CCOCC3)nccn2c1-c1cnn(C2CCOC2)c1 (single isomer, unassigned) [compound 109] | 178 nM | – |
| Cc1nc2c(-c3ccncc3)nccn2c1-c1cnn(CC2CCCCO2)c1 (single isomer, unassigned) [compound 80] | 112 nM | – |
| Cc1nc2c(N3CCOCC3)nccn2c1-c1ccc(-c2ccc(F)cc2)nc1 [compound 139] | 776 nM | – |
| Cc1nc2c(N3CCOCC3)nccn2c1-c1ccc(CCOC(C)C)nc1 [compound 21, 3-[6-(2-Isopropoxy-ethyl)-pyridin-3-yl]-2-methyl-8-morpholin-4-yl-imidazo[1,2-a]pyrazine] | – | ED50 ([1]; read-out: APO ED50): 1.2 mg/kg |
| Cc1nc2c(N3CCOCC3)nccn2c1-c1ccc(CCO)nc1 [compound 18, 2-[5-(2-Methyl-8-morpholin-4-yl-imidazo[1,2-a]pyrazin-3-yl)-pyridin-2-yl]-ethanol] | – | ED50 [1, 3]: > 2.5 mg/kg |
| Cc1nc2c(-c3ccncc3)nccn2c1-c1cnn(CC2CCCCO2)c1 (single isomer, unassigned) [compound 92] | 135 nM | – |
| CCOCCn1cc(-c2c(C)nc3c(N4CCOCC4)nccn23)cn1 [compound 93] | 135 nM | – |
| COCCn1cc(-c2c(OC)nc3c(N4CCOCC4)nccn23)cn1 [compound 137] | 631 nM | – |
| Cc1nc2c(-c3ccncc3)nccn2c1-c1ccc(OCC(F)(F)F)nc1 [compound 129] | 501 nM | – |
| Cc1nc2c(N3CCOCC3)nccn2c1-c1ccc(N2CCCC2)nc1 [compound 123] | – | ED50 [1, 3]: > 2.5 mg/kg |

| SMILES | IC50 [2] | other results |
| --- | --- | --- |
| COc1ncc(-c2c(C)nc3c(N4CCOCC4)nccn23)cn1 [compound 32, 3-(2-Methoxy-pyrimidin-5-yl)-2-methyl-8-morpholin-4-yl-imidazo[1,2-a]pyrazine] | 479 nM | – |
| COC(C)(C)Cc1ccc(-c2c(C)nc3c(N4CCOCC4)nccn23)cn1 [compound 7, 3-[6-(2-Methoxy-2-methyl-propyl)-pyridin-3-yl]-2-methyl-8-morpholin-4-yl-imidazo[1,2-a]pyrazine] | – | ED50 ([1]; read-out: APO ED50): 1.2 mg/kg |
| COCCn1cc(-c2c(C)nc3c(N4CCOCC4)nc(CCC(F)(F)F)cn23)cn1 [compound 39, 3-[1-(2-Methoxy-ethyl)-1H-pyrazol-4-yl]-2-methyl-8-morpholin-4-yl-6-(3,3,3-trifluoro-propyl)-imidazo[1,2-a]pyrazine] | 933 nM | – |
| COC(Cn1cc(-c2c(C)nc3c(N4CCOCC4)nccn23)cn1)C(C)C (single isomer, unassigned) [compound 59] | 74.1 nM | – |
| Cc1nc2c(N3CCOCC3)nccn2c1-c1cnn(CC(=O)C2CC2)c1 [compound 98] | 145 nM | – |
| COC[C@H](C)n1cc(-c2c(C)nc3c(N4CCOCC4)nccn23)cn1 [compound 75] | 100 nM | – |
| COCCOc1ccc(-c2c(C)nc3c(-c4ccncc4)nccn23)cn1 [compound 132] | 537 nM | – |
| COC(Cn1cc(-c2c(C)nc3c(N4CCOCC4)nccn23)cn1)C(C)C (single isomer, unassigned) [compound 54] | 56.2 nM | – |
| Cc1nc2c(N3CCOCC3)nccn2c1-c1cnn(CCOC(C)C)c1 [compound 127] | 457 nM | – |
| COCCc1ccc(-c2c(C)nc3c(N4CCCC4)nccn23)cn1 [compound 124] | – | ED50 [1, 3]: > 2.5 mg/kg |
| Cc1nc2c(N3CCOCC3)nccn2c1-c1cnn(CC2CC2(F)F)c1 (single isomer, unassigned) [compound 47] | 28.2 nM | – |
| Cc1nc2c(N3CCOCC3)nccn2c1-c1cnn(CCCF)c1 [compound 86] | 123 nM | – |
| COC(C)(C)Cc1ccc(-c2c(C3CC3)nc3c(N4CCOCC4)nccn23)cn1 [compound 60] | 75.9 nM | – |
| COCCn1cc(-c2c(C)nc3c(N4CCOCC4)nc(C4CC4)cn23)cn1 [compound 37, 6-Cyclopropyl-3-[1-(2-methoxy-ethyl)-1H-pyrazol-4-yl]-2-methyl-8-morpholin-4-yl-imidazo[1,2-a]pyrazine] | 490 nM | – |
| Cc1nc2c(N3CCOCC3)nccn2c1-c1cnc(N2CCOCC2)nc1 [compound 85] | 120 nM | – |
| Cc1nc2c(-c3ccncc3)nccn2c1-c1cnn(CCN2CCOCC2)c1 [compound 126] | 457 nM | – |
| CC(=O)Cn1cc(-c2c(C)nc3c(N4CCOCC4)nccn23)cn1 [compound 117] | 309 nM | – |
| Cc1nc2c(N3CCOCC3)nccn2c1-c1ccc(CCN2CCCC2)nc1 [compound 140] | 871 nM | – |
| COCCn1cc(-c2c(OC)nc3c(N4CCCC4)nccn23)cn1 [compound 131] | 537 nM | – |
| Cc1nc2c(N3CCOCC3)nccn2c1-c1cnn(CC2CCCCO2)c1 (centres unmarked) [compound 73] | 95.5 nM | – |
| Cc1cc(-c2c(C)nc3c(N4CCOCC4)nccn23)ccn1 [compound 133] | 550 nM | – |
| COC(C)(C)COc1ccc(-c2c(C)nc3c(-c4ccncc4)nccn23)cn1 [compound 2, 3-[6-(2-Methoxy-2-methyl-propoxy)-pyridin-3-yl]-2-methyl-8-pyridin-4-yl-imidazo[1,2-a]pyrazine] | 708 nM | – |
| Cc1nc2c(N3CCOCC3)nccn2c1-c1cc[nH]c1 [compound 43, 2-Methyl-8-morpholin-4-yl-3-(1H-pyrrol-3-yl)-imidazo[1,2-a]pyrazine] | 871 nM | – |
